We go through three compounds from patent US20060003382A1, “Compositions and methods for analyte detection” (priority 2004, published 2006).

The target of assay [1] is T1, avidin (Gallus gallus, UniProt P02701). The following applies: non-covalent protein-small molecule interaction; cited from earlier work.
The target in assay [2] is T2, egg white avidin (Gallus gallus, UniProt P02701).
T2 construct: Egg white avidin (Molecular Probes); purchased Molecular Probes; host or cells: egg white
In words: Cyclic / square wave voltammetry of the complexes before and after addition of avidin. It counts as binding. The following applies: for current signal after addition of biotin to the avidin-bound complex (displacement): 25 equiv (25-fold excess) of biotin; for current signal of the redox couple upon addition of avidin: CV, glassy carbon electrode. Here is the method:
All operations involving Ru were carried out under argon according to standard Schlenk techniques. [(H2O)Ru(NH3)5]^2+ was either generated and isolated as the PF6^− salt according to the literature procedure and then used or the or Cl^− salt was used directly (See, e.g., Callahan et al., Inorg. Chem. 1975, 14, 1443-1453). Electrochemical experiments were carried out using a CH Instruments 660A workstation, a glassy carbon working electrode, a Ag/AgCl reference electrode and a platinum wire counter electrode.
A solution of [(4-BMP)Ru(NH3)5](PF6)2 in pH 9.3 phosphate buffer was prepared and the cyclic voltammogram obtained.
A solution of 1.0 mg [(4-DMP)Ru(NH3)5](PF6)2 in 4.2 mL 0.5M NaCl in H2O was prepared and the cyclic voltammogram obtained. […] To this was added 26 mg avidin, the CV obtained, and then 0.25 mL of a solution of methyl viologen (10 mg/5 mL; 7.77×10^−3M) was added and the CV remeasured.
A 19 mg portion of avidin was added, the CV and square wave voltammograms were recorded.
A 4.8×10^−5 M solution (0.75 mg) of [(4-DPEP)Ru(NH3)5](PF6)2 in pH 7.18 phosphate buffer was prepared and the cyclic voltammogram obtained.
The electrochemical experiments were performed in phosphate buffer at pH 9.3, 8.1, and 7.3, in 0.5M NaCl solution, and in pH 7.3 HEPES buffer.

The target in assay [3] is T1, avidin. In words: Oxidation by [Ru(NH3)6]^3+, decrease of UV-visible absorption at 410 nm over time, free vs avidin-bound. The settings on record: oxidant [Ru(NH3)6]^3+. Here is the method: In the case of [(4-DPEP)Ru(NH3)5]^2+ the oxidant [Ru(NH3)6]^3+ was added and the decrease of the UV-visible absorption at 410 nm was monitored over time.

T2 sequence (P02701 25-152): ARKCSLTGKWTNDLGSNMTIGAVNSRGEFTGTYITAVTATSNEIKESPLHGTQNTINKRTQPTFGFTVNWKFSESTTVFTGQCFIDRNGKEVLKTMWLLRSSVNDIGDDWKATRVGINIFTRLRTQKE
T1 sequence (P02701 25-152): as above

Take `C[C@@H]1NC(=O)N[C@@H]1CCCCCC(=O)O` [desthiobiotin]: the “kd of binding to avidin” value in assay [1] is on record as “only slightly lower than that of biotin-avidin”.

Take “[(4-DMP)RU(NH3)5][PF6]2 [[(4-DMP)Ru(NH3)5]^2+]”: in assay [2], the “current signal after addition of biotin to the avidin-bound complex (displacement)” value is on record as “increased nearly to the original level” and the “current signal of the redox couple upon addition of avidin” value is reported as “decreased”. In addition, the “current signal after addition of biotin to the avidin-bound complex (displacement)” value in assay [2] (listed as [(4-DMP)Ru(NH3)5](PF6)2) is recorded as “the signal was regenerated”. Also, the “effect of added electrochemical mediators on the current signal of the Ru couple” value in assay [2] (avidin present, mediators 4,4′-bipyridine and methyl viologen) is “no effect on the current signal”.

As for “[(4-DPEP)Ru(NH3)5][PF6]2 [[(4-DPEP)Ru(NH3)5]^2+]”, the “current signal of the redox couple upon addition of avidin” value in assay [2] is given as “decreased the signal”; in assay [2] (listed as [(4-DPEP)Ru(NH3)5](PF6)2), “disappeared upon addition of avidin”. The “rate of oxidation, avidin-bound versus free complex” value in assay [3] is reported as “qualitatively slower”.
